The target in the assay is T1, BRD4 BD2 (Homo sapiens, UniProt O60885, Y97A).
T1 construct: BRD4 (1-477) (Y97A) and (Y390A); made in house; host or cells: E. coli (pET15b vector)
Briefly: TR-FRET binding assay, BRD4 BD2 (BD1-mutated protein). The following applies: read-out: pIC50 in the BRD4 BD2 assay (converted). In a few lines:
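Displacement of Alexa Fluor647-labelled bromodomain ligand (at Kd) from 10 nM His-tagged BRD4 (1-477, Y97A) read by Eu-anti-His TR-FRET (665/615 ratio) in pH 7.4 HEPES buffer, 0.5% DMSO. Compound preincubated 30 min at rt, detection ≥30 min. pIC50 derived from four-parameter fit after normalisation to controls.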
(Time-resolved FRET reads energy transfer from a long-lived donor to a nearby acceptor.)
Turning to `CC(=O)N1c2ccc(N3CCOCC3)cc2[C@H](Nc2ccc(C#N)cc2)[C@@H](C)[C@@H]1C` [Example 197, 4-(((2S,3R,4R)-1-acetyl-2,3-dimethyl-6-morpholino-1,2,3,4-tetrahydroquinolin-4-yl)amino)benzonitrile], the IC50 was 100 nM. As to `CC(=O)N1c2ccc(N3CCNCC3)cc2[C@H](Nc2ccc(C#N)cc2)[C@@H](C)[C@@H]1C` [Example 214, 4-(((2S,3R,4R)-1-acetyl-2,3-dimethyl-6-(piperazin-1-yl)-1,2,3,4-tetrahydroquinolin-4-yl)amino)benzonitrile], the IC50 was 100 nM. On to `CCNC(=O)c1ccc2c(c1)[C@H](Nc1cccc(C)n1)[C@@H](C)[C@H](C1CC1)N2C(C)=O` [Example 248, (2S,3R,4R)-1-acetyl-2-cyclopropyyl-N-ethyl-3-methyl-4-((6-methylpyridin-2-yl)amino)-1,2,3,4-tetrahydroquinoline-6-carboxamide], for which the IC50 was 100 nM. To `COCCNC(=O)c1ccc2c(c1)[C@H](Nc1cccc(C)n1)[C@@H](C)[C@H](C1CC1)N2C(C)=O` [Example 256, (2S,3R,4R)-1-acetyl-2-cyclopropyl-N-(2-methoxyethyl)-3-methyl-4-((6-methylpyridin-2-yl)amino)-1,2,3,4-tetrahydroquinoline-6-carboxamide] belongs 100 nM. As to `CC(=O)N1c2ccc(C(=O)N[C@@H]3CCOC3)cc2[C@H](Nc2cccc(C)n2)[C@@H](C)[C@@H]1C1CC1` [Example 261, (2S,3R,4R)-1-acetyl-2-cyclopropyl-3-methyl-4-((6-methylpyridin-2-yl)amino)-N—((R)-tetrahydrofuran-3-yl)-1,2,3,4-tetrahydroquinoline-6-carboxamide], the IC50 was 100 nM. To `CC(=O)N1c2ccc(C(=O)NCCS(C)(=O)=O)cc2[C@H](Nc2cccc(C)n2)[C@@H](C)[C@@H]1C1CC1` [Example 262, (2S,3R,4R)-1-acetyl-2-cyclopropyl-3-methyl-4-((6-methylpyridin-2-yl)amino)-N-(2-(methylsulfonyl)ethyl)-1,2,3,4-tetrahydroquinoline-6-carboxamide] belongs 100 nM; to `CC(=O)N1c2ccc(C(N)=O)cc2[C@H](Nc2nccc(C)n2)[C@@H](C)[C@@H]1C1CC1` [Example 291, (2S,3R,4R)-1-acetyl-2-cyclopropyl-3-methyl-4-((4-methylpyrimidin-2-yl)amino)-1,2,3,4-tetrahydroquinoline-6-carboxamide], 100 nM; to `CC(=O)N1c2ccc(C#N)cc2[C@H](Nc2cccc(CN(C)C)n2)[C@@H](C)[C@@H]1C1CC1` [Example 298, (2S,3R,4R)-1-acetyl-2-cyclopropyl-4-((6-((dimethylamino)methyl)pyridin-2-yl)amino)-3-methyl-1,2,3,4-tetrahydroquinoline-6-carbonitrile], 1000 to 100000 nM. To `CC(=O)N1c2ccc(C#N)cc2[C@H](Nc2ncccc2C(N)=O)[C@@H](C)[C@@H]1C1CC1` [Example 314, 2-(((2S,3R,4R)-1-acetyl-6-cyano-2-cyclopropyl-3-methyl-1,2,3,4-tetrahydroquinolin-4-yl)amino)nicotinamide] belongs 100 nM; to `CC(=O)N1c2ccc(C#N)cc2[C@H](Nc2cccc(C(N)=O)n2)[C@@H](C)[C@@H]1C1CC1` [Example 316, 6-(((2S,3R,4R)-1-acetyl-6-cyano-2-cyclopropyl-3-methyl-1,2,3,4-tetrahydroquinolin-4-yl)amino)picolinamide], 1000 to 100000 nM. In the case of `CC(=O)N1c2ccc(C#N)cc2[C@H](Nc2cccc(OCCN)n2)[C@@H](C)[C@@H]1C1CC1` [Example 318, (2S,3R,4R)-1-acetyl-4-((6-(2-aminoethoxy)pyridin-2-yl)amino)-2-cyclopropyl-3-methyl-1,2,3,4-tetrahydroquinoline-6-carbonitrile], the IC50 is 100 nM. To `CC[C@H]1[C@H](C)[C@@H](Nc2ccc(C#N)cc2)c2cc(C(=O)O)ccc2N1C(C)=O` [Example 331, (2S,3R,4R)-1-acetyl-4-((4-cyanophenyl)amino)-2-ethyl-3-methyl-1,2,3,4-tetrahydroquinoline-6-carboxylic acid] belongs 100 nM.

Values taken from US11478478B2, “2,3-disubstituted 1-acyl-4-amino-1,2,3,4-tetrahydroquinoline derivatives and their use as bromodomain inhibitors” (GLAXOSMITHKLINE INTELLECTUAL PROPERTY (NO.2) LIMITED, priority 2013, dated 2022).
